Assays:
Test in all cases: radiometric filter-binding kinase assay
GSK3B (human) = GSK3B (human) (UniProt P49841)
TBK1 (human) = TBK1 (human) (UniProt Q9UHD2)
NEK6 (human) = NEK6 (human) (UniProt Q9HC98)
INSR (human) = INSR (human) (UniProt P06213)
INSRR (human) = INSRR (human) (UniProt P14616)
CSNK2A1 (human) = CSNK2A1 (human) (UniProt P68400)
MYLK (human) = MYLK (human) (UniProt Q15746)
EPHA2 (human) = EPHA2 (human) (UniProt P29317)
MKNK1 (human) = MKNK1 (human) (UniProt Q9BUB5)
[1] = system: RPS6KB1 (human), P23443 [T412E]
Chain of RPS6KB1 (human), P23443 [T412E] (P23443 whole entry T412E, looked up): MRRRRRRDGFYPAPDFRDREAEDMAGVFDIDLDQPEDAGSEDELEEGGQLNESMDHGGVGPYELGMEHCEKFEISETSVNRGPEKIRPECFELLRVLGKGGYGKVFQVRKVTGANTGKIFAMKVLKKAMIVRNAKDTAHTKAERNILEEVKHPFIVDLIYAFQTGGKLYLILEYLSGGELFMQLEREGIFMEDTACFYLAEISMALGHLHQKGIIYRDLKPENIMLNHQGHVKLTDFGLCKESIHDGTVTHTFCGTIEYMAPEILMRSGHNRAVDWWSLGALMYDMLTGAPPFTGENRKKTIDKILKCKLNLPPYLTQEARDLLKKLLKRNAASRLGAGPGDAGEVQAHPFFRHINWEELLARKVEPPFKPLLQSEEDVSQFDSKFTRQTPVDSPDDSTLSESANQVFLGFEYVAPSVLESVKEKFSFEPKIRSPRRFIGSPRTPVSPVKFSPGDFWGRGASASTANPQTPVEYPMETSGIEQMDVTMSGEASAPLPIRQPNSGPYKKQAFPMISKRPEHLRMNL

SRPK1 (human) = SRPK1 (human) (UniProt Q96SB4)
Chain of SRPK1 (human) (Q96SB4 whole entry, looked up): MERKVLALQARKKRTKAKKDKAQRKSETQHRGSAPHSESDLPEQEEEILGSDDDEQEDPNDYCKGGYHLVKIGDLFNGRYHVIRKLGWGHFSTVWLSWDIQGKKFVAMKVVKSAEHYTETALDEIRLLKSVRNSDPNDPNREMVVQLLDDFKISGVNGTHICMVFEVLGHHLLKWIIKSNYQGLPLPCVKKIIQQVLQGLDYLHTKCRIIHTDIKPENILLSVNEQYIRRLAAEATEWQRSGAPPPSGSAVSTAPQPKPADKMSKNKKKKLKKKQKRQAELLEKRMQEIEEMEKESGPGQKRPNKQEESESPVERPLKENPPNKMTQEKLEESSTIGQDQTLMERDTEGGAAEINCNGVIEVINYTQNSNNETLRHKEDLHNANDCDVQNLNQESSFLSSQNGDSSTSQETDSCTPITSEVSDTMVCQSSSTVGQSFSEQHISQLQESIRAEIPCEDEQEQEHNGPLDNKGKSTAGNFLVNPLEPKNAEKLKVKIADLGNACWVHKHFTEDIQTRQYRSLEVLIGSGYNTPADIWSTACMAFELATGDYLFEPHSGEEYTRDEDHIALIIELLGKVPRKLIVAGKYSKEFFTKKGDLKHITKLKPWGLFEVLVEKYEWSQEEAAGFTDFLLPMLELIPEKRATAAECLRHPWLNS

PHKG1 (human) = PHKG1 (human) (UniProt Q16816)
PIM3 (human) = PIM3 (human) (UniProt Q86V86)
LCK (mouse) = conditions: accession and sequence are those of the human protein
SYK (human) = SYK (human) (UniProt P43405)
[2] = system: AKT1 (human), P31749 [S473D]
[3] = system: AKT2 (human), P31751 [S474D]
MAP2K1 (human) = MAP2K1 (human) (UniProt Q02750)
Chain of MAP2K1 (human) (Q02750 whole entry, looked up): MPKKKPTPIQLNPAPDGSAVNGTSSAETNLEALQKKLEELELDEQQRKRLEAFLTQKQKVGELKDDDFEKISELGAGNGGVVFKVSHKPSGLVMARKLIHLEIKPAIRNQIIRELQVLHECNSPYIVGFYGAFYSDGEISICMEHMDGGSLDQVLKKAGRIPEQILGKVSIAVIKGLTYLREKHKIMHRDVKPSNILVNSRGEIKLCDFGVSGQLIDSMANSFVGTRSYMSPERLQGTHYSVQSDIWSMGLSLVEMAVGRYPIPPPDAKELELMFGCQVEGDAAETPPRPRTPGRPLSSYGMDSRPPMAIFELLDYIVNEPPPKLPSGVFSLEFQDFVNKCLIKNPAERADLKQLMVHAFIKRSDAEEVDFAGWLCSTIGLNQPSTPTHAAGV

MAPK13 (human) = MAPK13 (human) (UniProt O15264)
Chain of MAPK13 (human) (O15264 whole entry, looked up): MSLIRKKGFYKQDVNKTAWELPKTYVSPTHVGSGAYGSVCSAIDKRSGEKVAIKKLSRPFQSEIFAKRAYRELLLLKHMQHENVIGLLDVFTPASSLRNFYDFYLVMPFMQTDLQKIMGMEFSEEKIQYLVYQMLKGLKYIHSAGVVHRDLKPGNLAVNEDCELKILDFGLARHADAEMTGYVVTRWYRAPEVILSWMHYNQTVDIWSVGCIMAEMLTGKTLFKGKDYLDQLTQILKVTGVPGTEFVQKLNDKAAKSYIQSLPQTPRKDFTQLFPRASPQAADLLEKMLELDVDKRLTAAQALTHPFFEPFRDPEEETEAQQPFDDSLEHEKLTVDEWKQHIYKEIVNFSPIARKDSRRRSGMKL

DYRK3 (human) = DYRK3 (human) (UniProt O43781)
Chain of DYRK3 (human) (O43781 whole entry, looked up): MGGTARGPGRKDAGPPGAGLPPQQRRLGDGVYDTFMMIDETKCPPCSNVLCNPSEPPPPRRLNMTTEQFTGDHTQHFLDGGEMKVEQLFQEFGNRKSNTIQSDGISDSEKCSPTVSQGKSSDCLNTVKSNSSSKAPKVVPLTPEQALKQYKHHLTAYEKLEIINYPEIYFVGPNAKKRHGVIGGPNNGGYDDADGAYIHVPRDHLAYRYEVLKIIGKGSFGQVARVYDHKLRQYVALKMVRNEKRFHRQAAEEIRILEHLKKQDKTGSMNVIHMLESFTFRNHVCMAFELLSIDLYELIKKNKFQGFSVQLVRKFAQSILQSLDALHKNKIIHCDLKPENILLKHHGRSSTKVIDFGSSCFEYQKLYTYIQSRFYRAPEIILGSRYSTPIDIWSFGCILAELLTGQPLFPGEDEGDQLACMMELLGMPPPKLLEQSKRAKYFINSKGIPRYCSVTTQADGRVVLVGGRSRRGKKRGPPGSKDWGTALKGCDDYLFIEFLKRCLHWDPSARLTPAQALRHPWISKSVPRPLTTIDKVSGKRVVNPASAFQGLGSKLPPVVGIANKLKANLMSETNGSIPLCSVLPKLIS

ROCK2 (rat) = conditions: accession and sequence are those of the human protein
PIM2 (human) = PIM2 (human) (UniProt Q9P1W9)
MAPK11 (human) = MAPK11 (human) (UniProt Q15759)
Chain of MAPK11 (human) (Q15759 whole entry, looked up): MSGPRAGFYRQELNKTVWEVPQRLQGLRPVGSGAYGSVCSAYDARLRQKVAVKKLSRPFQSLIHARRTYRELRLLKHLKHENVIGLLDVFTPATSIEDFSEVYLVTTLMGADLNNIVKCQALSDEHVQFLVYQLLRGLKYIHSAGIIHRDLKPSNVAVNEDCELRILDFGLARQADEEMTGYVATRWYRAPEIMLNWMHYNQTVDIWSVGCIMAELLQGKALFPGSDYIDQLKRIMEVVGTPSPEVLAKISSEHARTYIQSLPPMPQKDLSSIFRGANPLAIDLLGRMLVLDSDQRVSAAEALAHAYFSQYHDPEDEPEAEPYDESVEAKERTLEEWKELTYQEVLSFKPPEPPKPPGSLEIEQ

PKN2 (human) = PKN2 (human) (UniProt Q16513)
FGFR1 (human) = FGFR1 (human) (UniProt P11362)
NEK2 (human) = NEK2 (human) (UniProt P51955)
Chain of NEK2 (human) (P51955 whole entry, looked up): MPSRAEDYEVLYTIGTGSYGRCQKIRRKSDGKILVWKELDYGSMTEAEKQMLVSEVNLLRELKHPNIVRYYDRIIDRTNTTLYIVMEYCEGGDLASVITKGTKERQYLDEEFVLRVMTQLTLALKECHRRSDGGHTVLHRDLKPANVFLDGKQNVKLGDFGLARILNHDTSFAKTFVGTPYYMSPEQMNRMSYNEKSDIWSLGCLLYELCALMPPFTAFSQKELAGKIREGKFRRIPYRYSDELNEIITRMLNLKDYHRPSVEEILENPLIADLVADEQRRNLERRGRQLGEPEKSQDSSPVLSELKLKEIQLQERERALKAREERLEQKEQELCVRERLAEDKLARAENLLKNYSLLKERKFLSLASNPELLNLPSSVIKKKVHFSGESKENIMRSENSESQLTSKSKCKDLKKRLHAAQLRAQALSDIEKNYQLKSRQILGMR

Chain of NEK6 (human) (Q9HC98 whole entry, looked up): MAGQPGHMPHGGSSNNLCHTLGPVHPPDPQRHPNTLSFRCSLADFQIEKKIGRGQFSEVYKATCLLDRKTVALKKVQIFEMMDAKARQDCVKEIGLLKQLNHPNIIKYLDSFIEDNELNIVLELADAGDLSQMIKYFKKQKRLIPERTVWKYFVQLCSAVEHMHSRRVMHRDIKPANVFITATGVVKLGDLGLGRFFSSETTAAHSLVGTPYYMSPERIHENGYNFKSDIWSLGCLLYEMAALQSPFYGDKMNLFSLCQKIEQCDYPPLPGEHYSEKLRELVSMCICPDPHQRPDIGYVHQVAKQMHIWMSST
Chain of EPHA2 (human) (P29317 whole entry, looked up): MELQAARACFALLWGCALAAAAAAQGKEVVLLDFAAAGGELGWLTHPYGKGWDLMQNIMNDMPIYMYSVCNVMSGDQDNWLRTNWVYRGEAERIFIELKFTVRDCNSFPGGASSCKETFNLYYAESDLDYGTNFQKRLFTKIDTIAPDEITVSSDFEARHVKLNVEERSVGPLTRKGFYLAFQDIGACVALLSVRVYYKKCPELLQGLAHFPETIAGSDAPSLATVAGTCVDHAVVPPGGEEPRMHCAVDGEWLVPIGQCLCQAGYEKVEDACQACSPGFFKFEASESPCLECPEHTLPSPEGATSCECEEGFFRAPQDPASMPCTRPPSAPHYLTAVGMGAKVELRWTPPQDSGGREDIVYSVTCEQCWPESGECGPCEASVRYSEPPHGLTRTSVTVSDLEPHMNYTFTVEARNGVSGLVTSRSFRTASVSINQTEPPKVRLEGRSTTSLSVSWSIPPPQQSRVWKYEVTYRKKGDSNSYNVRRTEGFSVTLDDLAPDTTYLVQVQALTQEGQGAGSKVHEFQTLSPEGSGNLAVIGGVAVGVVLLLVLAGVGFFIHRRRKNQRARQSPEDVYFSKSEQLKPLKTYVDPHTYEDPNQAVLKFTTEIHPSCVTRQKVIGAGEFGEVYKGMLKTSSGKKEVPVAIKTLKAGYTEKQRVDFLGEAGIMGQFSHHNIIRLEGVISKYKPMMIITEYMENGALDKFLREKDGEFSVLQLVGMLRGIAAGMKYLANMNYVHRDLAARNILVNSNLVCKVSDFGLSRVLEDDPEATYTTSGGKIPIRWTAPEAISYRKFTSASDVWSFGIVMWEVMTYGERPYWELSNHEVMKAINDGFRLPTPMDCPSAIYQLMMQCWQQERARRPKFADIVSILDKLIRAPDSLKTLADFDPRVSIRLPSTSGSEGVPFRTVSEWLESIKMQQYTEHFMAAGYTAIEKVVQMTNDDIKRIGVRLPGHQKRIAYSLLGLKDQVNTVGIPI

O=C1Nc2nc(-c3c(O)cccc3OCC3CC3)cc(C3CCCNC3)c2CO1 (centres undefined)
residual activity (GSK3B (human); compound 1.0 µM): 126%
residual activity (GSK3B (human); compound 10.0 µM): 99%
residual activity (TBK1 (human); compound 1.0 µM): 91%
residual activity (TBK1 (human); compound 10.0 µM): 84%
residual activity (NEK6 (human); compound 1.0 µM): 98%
residual activity (NEK6 (human); compound 10.0 µM): 93%
residual activity (INSR (human); compound 1.0 µM): 94%
residual activity (INSR (human); compound 10.0 µM): 96%
residual activity (INSRR (human); compound 1.0 µM): 78%
residual activity (INSRR (human); compound 10.0 µM): 45%
residual activity (CSNK2A1 (human); compound 1.0 µM): 95%
residual activity (CSNK2A1 (human); compound 10.0 µM): 70%
residual activity (MYLK (human); compound 1.0 µM): 76%
residual activity (MYLK (human); compound 10.0 µM): 37%
residual activity (EPHA2 (human); compound 1.0 µM): 96%
residual activity (EPHA2 (human); compound 10.0 µM): 84%
residual activity (MKNK1 (human); compound 1.0 µM): 97%
residual activity (MKNK1 (human); compound 10.0 µM): 74%
residual activity ([1]; compound 1.0 µM): 102%
residual activity ([1]; compound 10.0 µM): 68%
residual activity (SRPK1 (human); compound 1.0 µM): 98%
residual activity (SRPK1 (human); compound 10.0 µM): 65%
residual activity (PHKG1 (human); compound 1.0 µM): 70%
residual activity (PHKG1 (human); compound 10.0 µM): 21%
residual activity (PIM3 (human); compound 1.0 µM): 44%
residual activity (PIM3 (human); compound 10.0 µM): 7%
residual activity (LCK (mouse); compound 1.0 µM): 88%
residual activity (LCK (mouse); compound 10.0 µM): 74%
residual activity (SYK (human); compound 1.0 µM): 106%
residual activity (SYK (human); compound 10.0 µM): 91%
residual activity ([2]; compound 1.0 µM): 87%
residual activity ([2]; compound 10.0 µM): 55%
residual activity ([3]; compound 1.0 µM): 88%
residual activity ([3]; compound 10.0 µM): 61%
residual activity (MAP2K1 (human); compound 1.0 µM): 79%
residual activity (MAP2K1 (human); compound 10.0 µM): 62%
residual activity (MAPK13 (human); compound 1.0 µM): 88%
residual activity (MAPK13 (human); compound 10.0 µM): 73%
residual activity (DYRK3 (human); compound 1.0 µM): 71%
residual activity (DYRK3 (human); compound 10.0 µM): 24%
residual activity (ROCK2 (rat); compound 1.0 µM): 73%
residual activity (ROCK2 (rat); compound 10.0 µM): 39%
residual activity (PIM2 (human); compound 10.0 µM): 40%
residual activity (MAPK11 (human); compound 1.0 µM): 91%
residual activity (MAPK11 (human); compound 10.0 µM): 74%
residual activity (PKN2 (human); compound 1.0 µM): 69%
residual activity (PKN2 (human); compound 10.0 µM): 36%
residual activity (FGFR1 (human); compound 1.0 µM): 96%
residual activity (FGFR1 (human); compound 10.0 µM): 79%
residual activity (NEK2 (human); compound 1.0 µM): 83%
residual activity (NEK2 (human); compound 10.0 µM): 81%

CCc1cncnc1N1CCN(Cc2nc3cc(C(F)(F)F)ccc3[nH]2)CC1
residual activity (GSK3B (human); compound 0.1 µM): 87%
residual activity (GSK3B (human); compound 1.0 µM): 96%
residual activity (GSK3B (human); compound 10.0 µM): 92%
residual activity (TBK1 (human); compound 0.1 µM): 108%
residual activity (TBK1 (human); compound 1.0 µM): 105%
residual activity (TBK1 (human); compound 10.0 µM): 97%
residual activity (NEK6 (human); compound 0.1 µM): 88%
residual activity (NEK6 (human); compound 1.0 µM): 75%
residual activity (NEK6 (human); compound 10.0 µM): 80%
residual activity (INSR (human); compound 0.1 µM): 108%
residual activity (INSR (human); compound 1.0 µM): 95%
residual activity (INSR (human); compound 10.0 µM): 96%
residual activity (INSRR (human); compound 0.1 µM): 88%
residual activity (INSRR (human); compound 1.0 µM): 96%
residual activity (INSRR (human); compound 10.0 µM): 77%
residual activity (CSNK2A1 (human); compound 0.1 µM): 96%
residual activity (CSNK2A1 (human); compound 1.0 µM): 92%
residual activity (CSNK2A1 (human); compound 10.0 µM): 83%
residual activity (MYLK (human); compound 0.1 µM): 95%
residual activity (MYLK (human); compound 1.0 µM): 79%
residual activity (MYLK (human); compound 10.0 µM): 87%
residual activity (EPHA2 (human); compound 0.1 µM): 95%
residual activity (EPHA2 (human); compound 1.0 µM): 86%
residual activity (EPHA2 (human); compound 10.0 µM): 89%
residual activity (MKNK1 (human); compound 0.1 µM): 101%
residual activity (MKNK1 (human); compound 1.0 µM): 91%
residual activity (MKNK1 (human); compound 10.0 µM): 79%
residual activity ([1]; compound 0.1 µM): 39%
residual activity ([1]; compound 1.0 µM): 16%
residual activity ([1]; compound 10.0 µM): 6%
residual activity (SRPK1 (human); compound 0.1 µM): 108%
residual activity (SRPK1 (human); compound 1.0 µM): 106%
residual activity (SRPK1 (human); compound 10.0 µM): 101%
residual activity (PHKG1 (human); compound 0.1 µM): 100%
residual activity (PHKG1 (human); compound 1.0 µM): 96%
residual activity (PHKG1 (human); compound 10.0 µM): 104%
residual activity (PIM3 (human); compound 0.1 µM): 93%
residual activity (PIM3 (human); compound 1.0 µM): 88%
residual activity (PIM3 (human); compound 10.0 µM): 83%
residual activity (LCK (mouse); compound 0.1 µM): 91%
residual activity (LCK (mouse); compound 1.0 µM): 92%
residual activity (LCK (mouse); compound 10.0 µM): 88%
residual activity (SYK (human); compound 0.1 µM): 121%
residual activity (SYK (human); compound 1.0 µM): 100%
residual activity (SYK (human); compound 10.0 µM): 91%
residual activity ([2]; compound 0.1 µM): 87%
residual activity ([2]; compound 1.0 µM): 69%
residual activity ([2]; compound 10.0 µM): 52%
residual activity ([3]; compound 0.1 µM): 74%
residual activity ([3]; compound 1.0 µM): 73%
residual activity ([3]; compound 10.0 µM): 60%
residual activity (MAP2K1 (human); compound 0.1 µM): 117%
residual activity (MAP2K1 (human); compound 1.0 µM): 104%
residual activity (MAP2K1 (human); compound 10.0 µM): 96%
residual activity (MAPK13 (human); compound 0.1 µM): 89%
residual activity (MAPK13 (human); compound 1.0 µM): 82%
residual activity (MAPK13 (human); compound 10.0 µM): 91%
residual activity (DYRK3 (human); compound 0.1 µM): 106%
residual activity (DYRK3 (human); compound 1.0 µM): 92%
residual activity (DYRK3 (human); compound 10.0 µM): 83%
residual activity (ROCK2 (rat); compound 0.1 µM): 98%
residual activity (ROCK2 (rat); compound 1.0 µM): 91%
residual activity (ROCK2 (rat); compound 10.0 µM): 58%
residual activity (PIM2 (human); compound 0.1 µM): 90%
residual activity (PIM2 (human); compound 1.0 µM): 90%
residual activity (PIM2 (human); compound 10.0 µM): 100%
residual activity (MAPK11 (human); compound 0.1 µM): 88%
residual activity (MAPK11 (human); compound 1.0 µM): 89%
residual activity (MAPK11 (human); compound 10.0 µM): 97%
residual activity (PKN2 (human); compound 0.1 µM): 95%
residual activity (PKN2 (human); compound 1.0 µM): 86%
residual activity (PKN2 (human); compound 10.0 µM): 84%
residual activity (FGFR1 (human); compound 0.1 µM): 91%
residual activity (FGFR1 (human); compound 1.0 µM): 92%
residual activity (FGFR1 (human); compound 10.0 µM): 63%
residual activity (NEK2 (human); compound 0.1 µM): 95%
residual activity (NEK2 (human); compound 1.0 µM): 94%
residual activity (NEK2 (human); compound 10.0 µM): 91%

Source: the kinase profiling compilation of Christmann-Franck et al. (2016)
